# Biological target: T1, human A1 AR (Homo sapiens, UniProt P30542)
# T1 construct: expressed in transfected cells
# T1 sequence (P30542 1-326): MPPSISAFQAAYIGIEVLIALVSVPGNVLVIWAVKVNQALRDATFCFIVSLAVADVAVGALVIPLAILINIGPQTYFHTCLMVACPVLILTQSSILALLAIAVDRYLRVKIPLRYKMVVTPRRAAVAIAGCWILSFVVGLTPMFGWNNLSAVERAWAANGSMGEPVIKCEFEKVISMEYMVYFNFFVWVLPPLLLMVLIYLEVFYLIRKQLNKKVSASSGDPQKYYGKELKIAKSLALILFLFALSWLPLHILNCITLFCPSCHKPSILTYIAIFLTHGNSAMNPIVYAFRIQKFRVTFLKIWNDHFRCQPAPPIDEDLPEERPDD
# Experiment: Radioligand binding at human A1 AR ([3H]NECA, membranes of CHO cells)
# Conditions: not given
# Method in brief: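 Membranes from CHO (hA1, hA3) or HEK-293 (hA2A) cells were pretreated with adenosine deaminase and incubated 60 min at 25° C in pH 7.5 Tris/10 mM MgCl2. Radioligands were A1 [3H]NECA 3.5 nM, A2A [3H]CGS21680 10 nM and A3 [125I]I-AB-MECA 0.34 nM. Bound ligand was filtered and Ki derived.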
row,inhibition at 10 µM [%],Compound
1,8,CNC(=O)[C@@]12C[C@@H]1[C@@H](n1cnc3c(NCc4cccc(Cl)c4)nc(C#CCCCCc4cn(-c5ccc(F)c([N+](=O)[O-])c5)nn4)nc31)[C@H](O)[C@@H]2O [Compound 11]
2,3,"CNC(=O)[C@@]12C[C@@H]1[C@@H](n1cnc3c(NCc4cccc(Cl)c4)nc(C#CCCCCc4cn(-c5ccc(N)cc5)nn4)nc31)[C@H](O)[C@@H]2O [Compound 12, (1S,2R,3S,4R,5S)-4′-(6-(3-Chlorobenzylamino)-2-(6-(1-(4-amino-phenyl)-1H-1,2,3-triazol-4-yl)hex-1-ynyl)-9H-purin-9-yl)-2′,3′-dihydroxybicyclo[3.1.0]hexane-1′-carboxylic acid N-methylamide]"
3,0,"CNC(=O)[C@@]12C[C@@H]1[C@@H](n1cnc3c(NCc4cccc(Cl)c4)nc(C#CCCCCc4cn(-c5ccc(C(=O)O)cc5)nn4)nc31)[C@H](O)[C@@H]2O [Compound 13, (1S,2R,3S,4R,5S)-4′-(6-(3-Chlorobenzylamino)-2-(6-(1-(4-carboxyl-phenyl)-1H-1,2,3-triazol-4-yl)hex-1-ynyl)-9H-purin-9-yl)-2′,3′-dihydroxybicyclo[3.1.0]hexane-1′-carboxylic acid N-methylamide]"
4,12,"CNC(=O)[C@@]12C[C@@H]1[C@@H](n1cnc3c(NCc4cccc(Cl)c4)nc(C#CCCCCc4cn(-c5ccc(C(=O)CBr)cc5)nn4)nc31)[C@H](O)[C@@H]2O [Compound 14, (1S,2R,3S,4R,5S)-6-(3-Chlorobenzylamino)-4-(2-(6-(4-(2-bromoacetyl)phenyl)-1H-1,2,3-triazol-4-yphex-1-ynyl)-9H-purin-9-yl)-2′,3′-dihydroxybicyclo[3.1.0]hexane-1′-carboxylic acid N-methylamide]"
5,12,"CNC(=O)[C@@]12C[C@@H]1[C@@H](n1cnc3c(NCc4cccc(Cl)c4)nc(C#CCCCCc4cn(CCNC(C)=O)nn4)nc31)[C@H](O)[C@@H]2O [Compound 15, (1S,2R,3S,4R,5S)-6-(3-Chlorobenzylamino)-(2-(6-(1-(4-acetamidoethyl)-1H-1,2,3-triazol-4-yl)hex-1-ynyl)-9H-purin-9-yl)-2′,3′-dihydroxybicyclo[3.1.0]hexane-1′-carboxylic acid N-methylamide]"
6,13,"CNC(=O)[C@@]12C[C@@H]1[C@@H](n1cnc3c(NCc4cccc(Cl)c4)nc(C#CCCCCc4cn(CCCCN)nn4)nc31)[C@H](O)[C@@H]2O [Compound 16, (1S,2R,3S,4R,5S)-6-(3-Chlorobenzylamino)-(2-(6-(1-(4-aminobutyl)-1H-1,2,3-triazol-4-yl)hex-1-ynyl)-9H-purin-9-yl)-2′,3′-dihydroxybicyclo[3.1.0]hexane-1′-carboxylic acid N-methylamide]"
7,17,"CNC(=O)[C@@]12C[C@@H]1[C@@H](n1cnc3c(NCc4cccc(Cl)c4)nc(C#CCCCCc4cn(CCCCNC(C)=O)nn4)nc31)[C@H](O)[C@@H]2O [Compound 17, (1S,2R,3S,4R,5S)-6-(3-Chlorobenzylamino)-(2-(6-(1-(4-acetamidobutyl)-1H-1,2,3-triazol-4-yl)hex-1-ynyl)-9H-purin-9-yl)-2′,3′-dihydroxybicyclo[3.1.0]hexane-1′-carboxylic acid N-methylamide]"
8,22,"CNC(=O)[C@@]12C[C@@H]1[C@@H](n1cnc3c(NCc4cccc(Cl)c4)nc(C#CCCCCc4cn(C56CC7CC(CC(C7)C5)C6)nn4)nc31)[C@H](O)[C@@H]2O [Compound 18, (1S,2R,3S,4R,5S)-6-(3-Chlorobenzylamino)-(2-(6-(1-(adamantyl)-1H-1,2,3-triazol-4-yl)hex-1-ynyl)-9H-purin-9-yl)-2′,3′-dihydroxybicyclo[3.1.0]hexane-1′-carboxylic acid N-methylamide]"
9,15,"CNC(=O)[C@@]12C[C@@H]1[C@@H](n1cnc3c(NCc4cccc(Cl)c4)nc(C#CCCCCc4cn(Cc5ccc(-n6sccc6=O)cc5)nn4)nc31)[C@H](O)[C@@H]2O [Compound 19, (1S,2R,3S,4R,5S)-6-(3-Chlorobenzylamino)-(2-(1-(4-3-oxoisothiazol-2(3H)-yl)benzyl-1H-1,2,3-triazol-4-yphex-1-ynyl)-9H-purin-9-yl)-2′,3′-dihydroxybicyclo[3.1.0]hexane-β-carboxylic acid N-methylamide]"
10,0,"CNC(=O)[C@@]12C[C@@H]1[C@@H](n1cnc3c(NCc4cccc(Cl)c4)nc(C#CCCCCc4cn(CCCCCCNC(=O)CCCC[C@@H]5SC[C@@H]6NC(=O)N[C@@H]65)nn4)nc31)[C@H](O)[C@@H]2O [Compound 20, (1S,2R,3S,4R,5S)-6-(3-Chlorobenzylamino)-(2-(6-(1-(6-(5-(3aS,4S,6aR)-oxohexahydro-1H-thieno[3,4-d]imidazol-4-yl)pentanamido)hexyl-1H-1,2,3-triazol-4-yl)hex-1-ynyl)-9H-purin-9-yl)-2′,3′-dihydroxybicyclo[3.1.0]hexane-1′-carboxylic acid N-methylamide]"

row,Compound,inhibition at 10 µM [%]
1,"CNC(=O)[C@@]12C[C@@H]1[C@@H](n1cnc3c(NCc4cccc(Cl)c4)nc(-c4nnn(-c5ccc(N=C=S)cc5)c4CCCCc4cn(-c5ccc(N=C=S)cc5)nn4)nc31)[C@H](O)[C@@H]2O [Compound 25, (1S,2R,3S,4R,5S)-6-(3-Chlorobenzylamino)-(2-(1,6-bis(4-isothiocyante-phenyl)-1H-bis(1,2,3-triazol-4-yl)hex-1-ynyl)-9H-purin-9-yl)-2′,3′-dihydroxybicyclo[3.1.0]hexane-1′-carboxylic acid N-methylamide]",4
2,"CNC(=O)[C@@]12C[C@@H]1[C@@H](n1cnc3c(NCc4cccc(Cl)c4)nc(C#CCCCCc4cn(-c5ccc(N=C=S)cc5)nn4)nc31)[C@H](O)[C@@H]2O [Compound 26, (1S,2R,3S,4R,5S)-6-(3-Chlorobenzylamino)-(2-(6-(1-(4-isothiocyante-phenyl)-1H-1,2,3-triazol-4-yl)hex-1-ynyl)-9H-purin-9-yl)-2′,3′-dihydroxybicyclo[3.1.0]hexane-1′-carboxylic acid N-methylamide]",2

# Same assay, conditions: inhibition of radioligand binding at 10 μM; [3H]36; CHO cells
row,"% inhibition, A1",Compound
1,(0 ± 0%),CNC(=O)[C@@]12C[C@@H]1[C@@H](n1cnc3c(NCc4cccc(Cl)c4)nc(C#CCCCCc4cn(CCCCCCC(=O)NCCCCCCNC(=O)CCCC[C@@H]5SC[C@@H]6NC(=O)N[C@@H]65)nn4)nc31)[C@H](O)[C@@H]2O [Compound 21]
2,(0 ± 0%),CNC(=O)[C@@]12C[C@@H]1[C@@H](n1cnc3c(NCc4cccc(Cl)c4)nc(C#CCCCCc4cn(CCCCCCNC(=O)c5ccc(-c6c7ccc(=N)c(S(=O)(=O)O)c-7oc7c(S(=O)(=O)O)c(N)ccc67)c(C(=O)O)c5)nn4)nc31)[C@H](O)[C@@H]2O [Compound 23]

# Biological target: T2, human A3AR (Homo sapiens, UniProt P0DMS8)
# T2 construct: expressed in transfected cells
# T2 sequence (P0DMS8 1-318): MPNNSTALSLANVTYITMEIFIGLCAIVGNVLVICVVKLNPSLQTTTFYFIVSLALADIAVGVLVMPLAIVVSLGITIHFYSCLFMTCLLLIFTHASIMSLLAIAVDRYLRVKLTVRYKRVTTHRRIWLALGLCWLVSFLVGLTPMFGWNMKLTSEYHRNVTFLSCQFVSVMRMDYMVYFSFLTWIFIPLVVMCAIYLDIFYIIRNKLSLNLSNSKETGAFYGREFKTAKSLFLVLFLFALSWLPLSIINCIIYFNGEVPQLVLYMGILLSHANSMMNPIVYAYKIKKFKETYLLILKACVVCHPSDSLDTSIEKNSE
# Experiment: not given
# Conditions: concentration 10 μM; values from Tosh et al.; cited from earlier work
row,Compound,% Inhibition of cAMP accumulation at the hA3AR [%]
1,"CNC(=O)[C@@]12C[C@@H]1[C@@H](n1cnc3c(NCc4cccc(Cl)c4)nc(C#CCCCCc4cn(CCNC(C)=O)nn4)nc31)[C@H](O)[C@@H]2O [Compound 15, (1S,2R,3S,4R,5S)-6-(3-Chlorobenzylamino)-(2-(6-(1-(4-acetamidoethyl)-1H-1,2,3-triazol-4-yl)hex-1-ynyl)-9H-purin-9-yl)-2′,3′-dihydroxybicyclo[3.1.0]hexane-1′-carboxylic acid N-methylamide]",93.6 ± 17.7

# Biological target: T1, human A1 AR
# Experiment: not given
# Conditions: at 10 μM; model compounds; values from Tosh et al. and Melman et al.; cited from earlier work
row,Compound,"% inhibition, A1"
1,"C#CCCCCC#Cc1nc(NCc2cccc(Cl)c2)c2ncn(C3C(O)C(O)C4(C(=O)NC)CC34)c2n1 (stereo not drawn) [Compound 9, (1′S, 2′R, 3′S, 4′S, 5′S)-4′-[6-(3-Chlorobenzylamino)-2-(1,7-octadiynyl)-9H-purin-9-yl]-2′,3′-dihydroxybicyclo[3.1.0]hexane-1′-carboxylic acid N-methylamide]",(31%
